Experimental data published in article PMC7316994, “In Vitro Pharmacological Profile of a New Small Molecule Bradykinin B2 Receptor Antagonist” (Frontiers in Pharmacology, 2020).

How the values were obtained:
mouse B2 receptor = molecular target: T1, mouse B2 receptor (Mus musculus, UniProt P32299); assay: Ca^2+ mobilization assay, HEK293T cells; format: cell-based; details: BK at EC80 0.53 nM, n=1
T1 construct: host or cells: HEK293T cells
T1 sequence (P32299 1-392): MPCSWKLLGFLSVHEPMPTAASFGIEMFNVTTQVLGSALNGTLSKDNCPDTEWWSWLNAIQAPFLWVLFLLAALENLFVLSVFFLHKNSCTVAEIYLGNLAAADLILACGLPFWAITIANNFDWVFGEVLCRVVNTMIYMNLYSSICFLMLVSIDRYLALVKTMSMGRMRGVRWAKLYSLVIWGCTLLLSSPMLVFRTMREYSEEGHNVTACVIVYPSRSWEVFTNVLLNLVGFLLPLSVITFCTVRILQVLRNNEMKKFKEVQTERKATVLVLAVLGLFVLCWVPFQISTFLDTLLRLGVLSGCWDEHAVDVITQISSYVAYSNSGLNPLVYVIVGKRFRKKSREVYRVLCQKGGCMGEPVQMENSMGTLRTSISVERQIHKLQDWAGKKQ

Chemokine CXCR4 = Chemokine CXCR4 (Homo sapiens, UniProt P61073); assay: radioligand binding (Table S2); details: [125I] SDF-1α, Human recombinant Chem-1 cells
[1] = system: Chloride Cl- channel (GABA-gated); assay: radioligand binding (Table S2); details: [35S] TBPS, Rat cerebral cortex
Dopamine D1 = molecular target: T2, Dopamine D1 (Homo sapiens, UniProt P21728); assay: radioligand binding (Table S2); details: [3H] SCH 23390, Human recombinant CHO cells
T2 construct: host or cells: CHO cells
T2 sequence (P21728 whole entry): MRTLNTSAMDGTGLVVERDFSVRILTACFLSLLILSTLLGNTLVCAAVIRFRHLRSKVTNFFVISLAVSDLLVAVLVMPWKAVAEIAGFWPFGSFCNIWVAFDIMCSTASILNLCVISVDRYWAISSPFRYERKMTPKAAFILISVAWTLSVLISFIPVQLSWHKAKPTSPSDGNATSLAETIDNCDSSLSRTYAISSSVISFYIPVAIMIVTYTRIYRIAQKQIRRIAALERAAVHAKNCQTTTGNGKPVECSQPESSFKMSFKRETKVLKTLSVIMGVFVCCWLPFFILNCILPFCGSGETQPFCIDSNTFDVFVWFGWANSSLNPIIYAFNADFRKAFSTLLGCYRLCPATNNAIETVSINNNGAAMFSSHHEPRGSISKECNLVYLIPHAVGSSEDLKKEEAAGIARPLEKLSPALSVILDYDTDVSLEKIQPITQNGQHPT

Dopamine D2S = molecular target: T3, Dopamine D2S (Homo sapiens, UniProt P14416); assay: radioligand binding (Table S2); details: [3H] 7-OH-DPAT, Human recombinant HEK-293 cells
T3 construct: host or cells: HEK-293 cells

[2] = system: Glutamate ionotropic, AMPA; assay: radioligand binding (Table S2); details: [3H] AMPA, Rat cerebral cortex
[3] = system: Glutamate ionotropic, NMDA; assay: radioligand binding (Table S2); details: [3H] CGP 39653, Rat cerebral cortex
Melatonin MT1 (ML1A) = molecular target: T4, Melatonin MT1 (ML1A) (Homo sapiens, UniProt P48039); assay: radioligand binding (Table S2); details: [125I] 2-iodomelatonin, Human recombinant CHO cells
T4 construct: host or cells: CHO cells
T4 sequence (P48039 whole entry): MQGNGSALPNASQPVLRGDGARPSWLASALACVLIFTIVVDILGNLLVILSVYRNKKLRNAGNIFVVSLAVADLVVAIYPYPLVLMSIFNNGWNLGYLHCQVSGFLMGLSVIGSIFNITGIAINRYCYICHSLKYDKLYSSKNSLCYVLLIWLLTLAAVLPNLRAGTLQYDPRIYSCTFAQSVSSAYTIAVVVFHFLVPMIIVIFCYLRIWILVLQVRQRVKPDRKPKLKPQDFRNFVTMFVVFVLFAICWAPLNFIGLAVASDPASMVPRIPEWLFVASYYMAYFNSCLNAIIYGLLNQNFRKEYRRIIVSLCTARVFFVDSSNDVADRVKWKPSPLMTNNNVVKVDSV

Melatonin MT2 (ML1B) = molecular target: T5, Melatonin MT2 (ML1B) (Homo sapiens, UniProt P49286); assay: radioligand binding (Table S2); details: [125I] 2-iodomelatonin, Human recombinant CHO cells
T5 construct: host or cells: CHO cells

Orexin OX2 = molecular target: T6, Orexin OX2 (Homo sapiens, UniProt O43614); assay: radioligand binding (Table S2); details: [125I] Orexin A, Human recombinant HEK-293 cells
T6 construct: host or cells: HEK-293 cells

Oxytocin = molecular target: T7, Oxytocin (Homo sapiens, UniProt P30559); assay: radioligand binding (Table S2); details: [3H] Oxytocin, Human recombinant Chem-1 cells
T7 construct: host or cells: Chem-1 cells
T7 sequence (P30559 whole entry): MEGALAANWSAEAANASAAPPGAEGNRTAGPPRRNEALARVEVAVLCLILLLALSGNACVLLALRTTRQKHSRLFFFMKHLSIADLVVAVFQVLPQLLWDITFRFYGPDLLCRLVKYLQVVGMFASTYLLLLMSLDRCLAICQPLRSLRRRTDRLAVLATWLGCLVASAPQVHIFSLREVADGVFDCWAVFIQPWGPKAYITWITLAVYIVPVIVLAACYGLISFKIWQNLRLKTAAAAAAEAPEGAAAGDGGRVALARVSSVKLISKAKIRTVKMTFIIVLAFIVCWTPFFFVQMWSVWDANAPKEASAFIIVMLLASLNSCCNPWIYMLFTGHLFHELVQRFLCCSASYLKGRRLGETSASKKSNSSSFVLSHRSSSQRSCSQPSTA

Prostanoid CRTH2 = molecular target: T8, Prostanoid CRTH2 (Homo sapiens, UniProt Q9Y5Y4); assay: radioligand binding (Table S2); details: [3H] Prostaglandin D2, Human recombinant CHO-K1 cells
T8 construct: host or cells: CHO-K1 cells
T8 sequence (Q9Y5Y4 whole entry): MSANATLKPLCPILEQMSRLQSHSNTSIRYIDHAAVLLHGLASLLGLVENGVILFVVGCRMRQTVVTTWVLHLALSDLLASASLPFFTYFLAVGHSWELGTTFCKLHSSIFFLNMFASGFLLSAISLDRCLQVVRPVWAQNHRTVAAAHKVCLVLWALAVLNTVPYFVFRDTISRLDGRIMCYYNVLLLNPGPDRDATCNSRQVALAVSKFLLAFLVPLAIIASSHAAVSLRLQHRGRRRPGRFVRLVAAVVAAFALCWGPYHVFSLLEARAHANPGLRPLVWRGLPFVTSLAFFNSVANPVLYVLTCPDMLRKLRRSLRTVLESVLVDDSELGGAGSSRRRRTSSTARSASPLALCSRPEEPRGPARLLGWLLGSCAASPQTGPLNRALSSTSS

Purinergic receptor P2Y = assay: radioligand binding (Table S2); details: [35S] dATPαS, Rat cerebral cortex
Serotonin 5-HT3 = molecular target: T9, Serotonin 5-HT3 (Homo sapiens, UniProt P46098); assay: radioligand binding (Table S2); details: [3H] BRL 43694, Human recombinant CHO cells
T9 construct: host or cells: CHO cells

Serotonin 5-HT7 = molecular target: T10, Serotonin 5-HT7 (Homo sapiens, UniProt P34969); assay: radioligand binding (Table S2); details: [3H] LSD, Human recombinant CHO cells
T10 construct: host or cells: CHO cells
T10 sequence (P34969 whole entry): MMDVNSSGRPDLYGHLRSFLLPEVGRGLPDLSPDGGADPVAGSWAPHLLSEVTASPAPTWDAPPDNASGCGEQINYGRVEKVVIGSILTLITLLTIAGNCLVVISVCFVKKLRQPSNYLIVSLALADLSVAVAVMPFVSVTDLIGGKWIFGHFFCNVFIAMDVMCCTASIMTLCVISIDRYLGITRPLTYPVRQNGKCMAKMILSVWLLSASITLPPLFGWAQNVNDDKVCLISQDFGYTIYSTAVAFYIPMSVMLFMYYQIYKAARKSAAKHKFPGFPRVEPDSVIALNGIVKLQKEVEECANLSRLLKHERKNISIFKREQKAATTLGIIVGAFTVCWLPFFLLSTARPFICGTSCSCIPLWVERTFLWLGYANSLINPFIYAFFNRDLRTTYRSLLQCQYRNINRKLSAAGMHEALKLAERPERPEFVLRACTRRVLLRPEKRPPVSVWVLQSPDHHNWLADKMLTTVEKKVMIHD

Somatostatin sst5 = Somatostatin sst5 (Homo sapiens, UniProt P35346); assay: radioligand binding (Table S2); details: [125I] Tyr11-Somatostatin 14, Human recombinant Chem-1 cells
Vasopressin V1a = molecular target: T11, Vasopressin V1a (Homo sapiens, UniProt P37288); assay: radioligand binding (Table S2); details: [3H] AVP, Human recombinant CHO cells
T11 construct: host or cells: CHO cells
T11 sequence (P37288 whole entry): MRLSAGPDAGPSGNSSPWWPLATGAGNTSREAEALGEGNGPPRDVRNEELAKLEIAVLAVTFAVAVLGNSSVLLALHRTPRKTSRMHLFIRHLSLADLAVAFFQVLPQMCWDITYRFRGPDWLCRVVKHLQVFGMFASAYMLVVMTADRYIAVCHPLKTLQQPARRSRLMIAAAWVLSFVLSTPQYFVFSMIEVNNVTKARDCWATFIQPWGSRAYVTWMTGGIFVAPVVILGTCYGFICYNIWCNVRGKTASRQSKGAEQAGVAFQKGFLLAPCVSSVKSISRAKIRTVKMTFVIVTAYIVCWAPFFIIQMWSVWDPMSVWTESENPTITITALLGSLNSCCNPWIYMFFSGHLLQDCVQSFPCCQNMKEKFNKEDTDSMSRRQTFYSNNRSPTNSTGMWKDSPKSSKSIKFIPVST

COX1 = molecular target: T12, COX1 (Homo sapiens, UniProt P23219); assay: enzyme assay (Table S2); format: biochemical; details: Arachidonic acid (3 µM) + ADHP, Fluorimetry
T12 construct: Eurofins (assay provider)
T12 sequence (P23219 24-599): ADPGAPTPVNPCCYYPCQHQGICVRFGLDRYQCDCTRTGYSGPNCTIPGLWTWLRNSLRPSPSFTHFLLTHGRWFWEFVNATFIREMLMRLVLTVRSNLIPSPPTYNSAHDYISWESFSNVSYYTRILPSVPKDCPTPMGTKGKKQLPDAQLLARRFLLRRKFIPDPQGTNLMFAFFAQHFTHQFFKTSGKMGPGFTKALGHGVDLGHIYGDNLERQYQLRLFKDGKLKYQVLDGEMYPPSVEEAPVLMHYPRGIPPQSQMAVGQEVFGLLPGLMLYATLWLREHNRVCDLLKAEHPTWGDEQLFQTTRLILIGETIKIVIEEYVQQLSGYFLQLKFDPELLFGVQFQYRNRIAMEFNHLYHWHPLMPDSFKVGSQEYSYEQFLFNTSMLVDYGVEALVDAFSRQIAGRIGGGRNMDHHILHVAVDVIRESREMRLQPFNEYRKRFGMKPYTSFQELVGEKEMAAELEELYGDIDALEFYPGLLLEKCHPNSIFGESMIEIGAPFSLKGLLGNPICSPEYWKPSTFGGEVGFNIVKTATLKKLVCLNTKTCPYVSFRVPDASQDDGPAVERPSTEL

Lck kinase = Lck kinase (Homo sapiens, UniProt P06239); assay: enzyme assay (Table S2); format: biochemical; details: ATP + Ulight-PolyGAT (25 nM), LANCE
Sequence of Lck kinase (P06239 whole entry): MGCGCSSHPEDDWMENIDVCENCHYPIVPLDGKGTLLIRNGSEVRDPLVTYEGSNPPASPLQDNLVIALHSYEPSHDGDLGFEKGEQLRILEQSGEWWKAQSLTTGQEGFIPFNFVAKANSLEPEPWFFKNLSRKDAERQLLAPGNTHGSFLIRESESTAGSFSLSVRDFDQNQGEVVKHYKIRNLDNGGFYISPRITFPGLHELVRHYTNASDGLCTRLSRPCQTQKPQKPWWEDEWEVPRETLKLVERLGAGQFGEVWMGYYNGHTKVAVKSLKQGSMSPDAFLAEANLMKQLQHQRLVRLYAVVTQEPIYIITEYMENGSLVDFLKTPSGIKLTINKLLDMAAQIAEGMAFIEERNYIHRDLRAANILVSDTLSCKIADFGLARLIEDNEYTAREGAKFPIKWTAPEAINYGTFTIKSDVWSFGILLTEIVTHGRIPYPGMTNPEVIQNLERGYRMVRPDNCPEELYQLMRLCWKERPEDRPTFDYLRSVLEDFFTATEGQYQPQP

PDE5 (non-selective) = PDE5 (non-selective) (Homo sapiens, UniProt O76074); assay: enzyme assay (Table S2); format: biochemical; details: Human platelets, [3H]cGMP + cGMP (1 µM)
PDGFRα kinase = molecular target: T13, PDGFRα kinase (Homo sapiens, UniProt P16234); assay: enzyme assay (Table S2); format: biochemical; details: ATP + Ulight-TK peptide (100 nM), LANCE
T13 construct: Eurofins (assay provider)

Adenosine A1 = Adenosine A1 (Homo sapiens, UniProt P30542); assay: functional assay, impedance, CHO cells (Table S2); format: cell-based; details: read-out: % inhibition of reference agonist response @ 10 µM (antagonist effect), CPA (1 nM)
C5a = molecular target: T14, C5a (Homo sapiens, UniProt P21730); assay: functional assay, cAMP HTRF, HEK-293 cells (Table S2); format: cell-based
T14 construct: expressed in transfected cells; host or cells: HEK-293 cells
T14 sequence (P21730 whole entry): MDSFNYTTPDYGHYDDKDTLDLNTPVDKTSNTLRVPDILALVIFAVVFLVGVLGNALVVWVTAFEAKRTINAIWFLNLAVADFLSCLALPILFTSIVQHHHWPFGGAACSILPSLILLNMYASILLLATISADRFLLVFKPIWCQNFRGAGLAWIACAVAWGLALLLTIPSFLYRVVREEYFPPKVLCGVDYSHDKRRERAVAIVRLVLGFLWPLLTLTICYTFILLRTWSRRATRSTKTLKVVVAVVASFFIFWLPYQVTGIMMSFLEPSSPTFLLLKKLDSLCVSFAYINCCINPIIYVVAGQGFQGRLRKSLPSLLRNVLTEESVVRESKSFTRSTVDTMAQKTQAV

Vasopressin V1B = molecular target: T15, Vasopressin V1B (Homo sapiens, UniProt P47901); assay: functional assay, intracellular [Ca2+], RBL cells (Table S2); format: cell-based; details: read-out: % inhibition of reference agonist response @ 10 µM (antagonist effect), Vasopressin (5 nM)
T15 construct: expressed in transfected cells; host or cells: RBL cells
T15 sequence (P47901 whole entry): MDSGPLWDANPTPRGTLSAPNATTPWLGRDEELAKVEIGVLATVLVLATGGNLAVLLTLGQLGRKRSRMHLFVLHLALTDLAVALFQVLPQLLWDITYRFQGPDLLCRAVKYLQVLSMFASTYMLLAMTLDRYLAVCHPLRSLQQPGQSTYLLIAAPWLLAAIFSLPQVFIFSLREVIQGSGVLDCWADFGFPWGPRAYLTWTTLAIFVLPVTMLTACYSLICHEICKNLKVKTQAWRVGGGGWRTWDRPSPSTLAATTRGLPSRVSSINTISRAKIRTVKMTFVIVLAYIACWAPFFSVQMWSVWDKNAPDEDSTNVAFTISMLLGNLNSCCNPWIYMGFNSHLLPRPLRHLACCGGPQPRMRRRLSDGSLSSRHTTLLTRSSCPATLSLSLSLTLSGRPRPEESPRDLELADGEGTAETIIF

in vitro = details: human, Caco-2
Adrenergic β3 = Adrenergic β3 (Homo sapiens, UniProt P13945); assay: radioligand binding (Table S2); details: read-out: % Inhibition @ 10 µM
Cannabinoid CB1 = Cannabinoid CB1 (Homo sapiens, UniProt P21554); assay: radioligand binding (Table S2); details: read-out: % Inhibition @ 10 µM
Glucagon = Glucagon (Homo sapiens, UniProt P47871); assay: radioligand binding (Table S2); details: read-out: % Inhibition @ 10 µM
Sequence of Glucagon (P47871 26-477): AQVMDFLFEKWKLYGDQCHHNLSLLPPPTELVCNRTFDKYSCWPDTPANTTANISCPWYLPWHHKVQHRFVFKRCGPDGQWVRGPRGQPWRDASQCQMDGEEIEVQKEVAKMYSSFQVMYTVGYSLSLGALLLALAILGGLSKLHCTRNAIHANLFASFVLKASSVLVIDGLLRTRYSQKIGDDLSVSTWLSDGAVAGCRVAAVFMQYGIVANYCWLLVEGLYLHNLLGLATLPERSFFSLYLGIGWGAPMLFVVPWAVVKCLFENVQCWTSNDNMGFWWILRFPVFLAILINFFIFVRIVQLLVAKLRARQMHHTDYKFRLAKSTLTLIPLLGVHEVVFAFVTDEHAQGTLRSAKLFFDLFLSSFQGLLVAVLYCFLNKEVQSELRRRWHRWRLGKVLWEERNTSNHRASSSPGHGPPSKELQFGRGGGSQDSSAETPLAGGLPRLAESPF

[4] = system: Muscarinic, oxotremorine M; assay: radioligand binding (Table S2); details: [3H] Oxotremorine M, Wistar rat cerebral cortex

Cc1cc(-c2ncnn2C)c2cccc(OCc3c(Cl)cc(F)cc3[C@H](C)NC(=O)COC(F)F)c2n1 [Compound 3, (S)-N-(1-(3-chloro-5-fluoro-2-((2-methyl-4-(1-methyl-1H-1,2,4-triazol-5-yl)quinolin-8-yloxy)methyl)phenyl)ethyl)-2-(difluoromethoxy)acetamide]
IC50 (mouse B2 receptor): ~1200 nM
Kb (mouse B2 receptor): ~350 nM
inhibition at 10 µM (Chemokine CXCR4): 10%
% Inhibition @ 10 µM [1]: 32.9%
inhibition at 10 µM (Dopamine D1): 6.9%
inhibition at 10 µM (Dopamine D2S): -2.7%
% Inhibition @ 10 µM [2]: 3.0%
% Inhibition @ 10 µM [3]: 5.1%
inhibition at 10 µM (Melatonin MT1 (ML1A)): 15.3%
inhibition at 10 µM (Melatonin MT2 (ML1B)): 4.8%
inhibition at 10 µM (Orexin OX2): 25.9%
inhibition at 10 µM (Oxytocin): 5%
inhibition at 10 µM (Prostanoid CRTH2): 3%
% Inhibition @ 10 µM (Purinergic receptor P2Y): -4.3%
inhibition at 10 µM (Serotonin 5-HT3): 2.1%
inhibition at 10 µM (Serotonin 5-HT7): 3.3%
inhibition at 10 µM (Somatostatin sst5): 2%
% Inhibition @ 10 µM (Vasopressin V1a): 84%
inhibition at 10 µM (Vasopressin V1a): 84.1%
inhibition at 10 µM (COX1): -9.3%
inhibition at 10 µM (Lck kinase): 9.5%
inhibition at 10 µM (PDE5 (non-selective)): 15.5%
inhibition at 10 µM (PDGFRα kinase): -2.6%
inhibition at 10 µM (Adenosine A1): -2.3%
inhibition at 10 µM (C5a; HEK293, read-out: % inhibition of reference agonist response @ 10 µM (antagonist effect), hC5a (10 nM)): -0.2%
% of reference agonist response @ 10 µM (agonist effect) (C5a; reference hC5a (100 nM)): -18.1%
inhibition at 10 µM (Vasopressin V1B): 7.7%
Papp A→B at 60 min, 10 µM (in vitro): 17.3 ×10⁻⁶ cm/s
Papp B→A at 60 min, 10 µM (in vitro): 17.6 ×10⁻⁶ cm/s
inhibition at 10 µM (Adrenergic β3): 8.1%
inhibition at 10 µM (Cannabinoid CB1): -3%
inhibition at 10 µM (Glucagon): -0.6%
% Inhibition @ 10 µM [4]: 18%
